Key:
[1] = system: HEK293/GC-A^+/AT1^+ cells; experiment: Intracellular cGMP generation in HEK293/GC-A+/AT1+ cells; format: cell-based, human; conditions: ANP 10^−8 M, ANGII 10^−8 M
[2] = system: PKC; experiment: PKC activity by western blot of phosphorylated pan-PKC substrates; format: cell-based, human; conditions: Go6983 5 μM, HEK293/GC-A^+/AT1^+ cells

COc1ccc2c(c1)c(C1=C(c3c[nH]c4ccccc34)C(=O)NC1=O)cn2CCCN(C)C [Go6983]
Rescue of the suppression effect of ANGII on ANP-induced cGMP ([1]; Go6983 5 μM): significantly rescued | PKC activity, phosphorylated status of pan-PKC substrates [2]: effectively inhibited PKC activity

CCCCC(=O)N(Cc1ccc(-c2ccccc2-c2nnn[nH]2)cc1)[C@H](C(=O)O)C(C)C [valsartan]
Rescue of the suppression effect of ANGII on ANP-induced cGMP ([1]; valsartan 1 μM): significantly rescued

From paper PMC9901178 (bioRxiv, 2023)
